Our source for the IC50 values is ChEMBL document CHEMBL4261532, “Theoretical models of inhibitory activity for inhibitors of protein-protein interactions: targeting menin-mixed lineage leukemia with small molecules” (Medchemcomm, 2017).

T1 sequence (O00255 whole entry, the tested form may be a part): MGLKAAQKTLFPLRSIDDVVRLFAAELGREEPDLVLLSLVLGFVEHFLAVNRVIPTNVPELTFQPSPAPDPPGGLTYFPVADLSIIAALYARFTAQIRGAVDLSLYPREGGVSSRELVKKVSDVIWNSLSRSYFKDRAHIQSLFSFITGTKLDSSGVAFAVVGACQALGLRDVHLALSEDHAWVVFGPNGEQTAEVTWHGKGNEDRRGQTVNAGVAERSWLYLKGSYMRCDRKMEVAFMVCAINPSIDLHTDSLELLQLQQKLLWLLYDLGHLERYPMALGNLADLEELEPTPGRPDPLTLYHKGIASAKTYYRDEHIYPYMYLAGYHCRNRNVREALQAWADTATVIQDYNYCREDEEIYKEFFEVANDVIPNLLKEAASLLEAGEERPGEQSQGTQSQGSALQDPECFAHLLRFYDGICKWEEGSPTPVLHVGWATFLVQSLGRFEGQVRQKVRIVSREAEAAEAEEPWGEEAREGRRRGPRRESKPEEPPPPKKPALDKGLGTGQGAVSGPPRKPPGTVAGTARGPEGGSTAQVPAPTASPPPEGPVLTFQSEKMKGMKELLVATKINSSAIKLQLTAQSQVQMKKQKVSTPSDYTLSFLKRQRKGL
T1 sequence (Q03164 1-2718 partner limits assumed): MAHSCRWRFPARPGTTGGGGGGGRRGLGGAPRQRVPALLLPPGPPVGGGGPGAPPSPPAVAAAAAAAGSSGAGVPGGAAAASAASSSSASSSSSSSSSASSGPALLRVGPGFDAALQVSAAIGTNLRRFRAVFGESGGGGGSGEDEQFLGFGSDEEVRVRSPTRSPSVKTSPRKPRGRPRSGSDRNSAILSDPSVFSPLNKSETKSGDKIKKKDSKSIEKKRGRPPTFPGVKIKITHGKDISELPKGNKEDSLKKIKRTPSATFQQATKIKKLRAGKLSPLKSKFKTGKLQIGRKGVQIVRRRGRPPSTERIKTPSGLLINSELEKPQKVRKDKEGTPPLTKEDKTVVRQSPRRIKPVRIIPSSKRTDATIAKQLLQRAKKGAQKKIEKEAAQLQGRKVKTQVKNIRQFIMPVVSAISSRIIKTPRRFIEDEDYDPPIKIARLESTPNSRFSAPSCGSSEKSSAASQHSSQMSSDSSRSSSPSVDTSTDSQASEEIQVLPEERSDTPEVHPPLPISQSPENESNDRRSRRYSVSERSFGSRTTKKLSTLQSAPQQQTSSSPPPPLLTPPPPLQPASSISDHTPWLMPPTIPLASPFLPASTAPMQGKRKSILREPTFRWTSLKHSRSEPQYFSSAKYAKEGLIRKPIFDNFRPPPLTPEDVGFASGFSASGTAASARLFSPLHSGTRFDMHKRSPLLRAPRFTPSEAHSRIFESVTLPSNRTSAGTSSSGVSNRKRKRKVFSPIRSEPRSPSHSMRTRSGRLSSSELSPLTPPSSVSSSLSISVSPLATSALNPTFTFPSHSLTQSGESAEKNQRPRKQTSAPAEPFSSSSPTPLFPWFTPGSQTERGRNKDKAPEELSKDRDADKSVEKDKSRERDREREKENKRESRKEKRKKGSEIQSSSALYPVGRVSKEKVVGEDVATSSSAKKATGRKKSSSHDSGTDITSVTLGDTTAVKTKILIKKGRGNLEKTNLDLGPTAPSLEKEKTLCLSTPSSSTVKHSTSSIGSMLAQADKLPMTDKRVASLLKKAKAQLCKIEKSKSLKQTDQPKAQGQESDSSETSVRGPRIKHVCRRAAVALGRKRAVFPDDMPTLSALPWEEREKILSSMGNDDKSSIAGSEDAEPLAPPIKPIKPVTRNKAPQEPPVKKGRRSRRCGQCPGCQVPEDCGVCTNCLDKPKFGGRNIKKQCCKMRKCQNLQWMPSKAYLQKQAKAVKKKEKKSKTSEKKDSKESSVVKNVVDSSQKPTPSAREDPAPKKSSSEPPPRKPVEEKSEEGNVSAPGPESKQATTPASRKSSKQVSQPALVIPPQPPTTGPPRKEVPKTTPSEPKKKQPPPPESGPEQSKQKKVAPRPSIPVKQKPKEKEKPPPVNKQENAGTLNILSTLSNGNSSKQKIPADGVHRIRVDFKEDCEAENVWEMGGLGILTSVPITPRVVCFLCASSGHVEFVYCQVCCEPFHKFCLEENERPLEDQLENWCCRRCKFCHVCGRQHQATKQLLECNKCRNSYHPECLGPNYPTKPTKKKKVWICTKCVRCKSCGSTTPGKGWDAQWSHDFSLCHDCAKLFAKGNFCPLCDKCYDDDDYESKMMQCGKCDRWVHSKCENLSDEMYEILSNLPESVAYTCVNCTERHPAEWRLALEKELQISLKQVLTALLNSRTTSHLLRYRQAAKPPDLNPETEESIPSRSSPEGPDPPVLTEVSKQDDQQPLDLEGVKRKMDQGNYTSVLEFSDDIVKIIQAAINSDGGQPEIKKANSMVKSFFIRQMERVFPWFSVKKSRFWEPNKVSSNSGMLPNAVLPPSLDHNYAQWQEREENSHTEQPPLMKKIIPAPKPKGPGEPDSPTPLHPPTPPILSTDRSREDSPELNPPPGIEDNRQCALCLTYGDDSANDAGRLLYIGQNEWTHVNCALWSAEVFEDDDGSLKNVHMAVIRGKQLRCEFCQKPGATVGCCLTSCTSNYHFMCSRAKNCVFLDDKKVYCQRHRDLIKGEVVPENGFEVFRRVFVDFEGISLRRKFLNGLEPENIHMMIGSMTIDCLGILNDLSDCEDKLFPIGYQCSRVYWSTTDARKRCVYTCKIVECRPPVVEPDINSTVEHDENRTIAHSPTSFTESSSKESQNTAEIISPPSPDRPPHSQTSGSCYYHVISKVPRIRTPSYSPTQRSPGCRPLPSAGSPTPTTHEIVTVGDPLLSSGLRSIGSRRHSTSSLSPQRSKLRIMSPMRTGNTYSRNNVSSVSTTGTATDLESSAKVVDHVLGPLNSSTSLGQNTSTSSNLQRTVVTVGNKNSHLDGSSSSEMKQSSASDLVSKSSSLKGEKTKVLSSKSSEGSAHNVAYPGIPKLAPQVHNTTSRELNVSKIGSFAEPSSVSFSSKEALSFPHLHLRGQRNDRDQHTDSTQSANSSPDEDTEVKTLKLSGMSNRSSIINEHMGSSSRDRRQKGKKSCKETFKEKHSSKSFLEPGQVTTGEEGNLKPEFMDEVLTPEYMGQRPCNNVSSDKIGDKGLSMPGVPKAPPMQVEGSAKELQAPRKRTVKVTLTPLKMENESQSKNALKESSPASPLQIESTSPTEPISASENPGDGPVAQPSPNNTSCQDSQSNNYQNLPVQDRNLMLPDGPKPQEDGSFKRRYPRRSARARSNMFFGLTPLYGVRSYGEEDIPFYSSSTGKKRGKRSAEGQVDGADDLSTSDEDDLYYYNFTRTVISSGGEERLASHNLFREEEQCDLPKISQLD
T1 sequence (Q03164 2719-3969 partner limits assumed): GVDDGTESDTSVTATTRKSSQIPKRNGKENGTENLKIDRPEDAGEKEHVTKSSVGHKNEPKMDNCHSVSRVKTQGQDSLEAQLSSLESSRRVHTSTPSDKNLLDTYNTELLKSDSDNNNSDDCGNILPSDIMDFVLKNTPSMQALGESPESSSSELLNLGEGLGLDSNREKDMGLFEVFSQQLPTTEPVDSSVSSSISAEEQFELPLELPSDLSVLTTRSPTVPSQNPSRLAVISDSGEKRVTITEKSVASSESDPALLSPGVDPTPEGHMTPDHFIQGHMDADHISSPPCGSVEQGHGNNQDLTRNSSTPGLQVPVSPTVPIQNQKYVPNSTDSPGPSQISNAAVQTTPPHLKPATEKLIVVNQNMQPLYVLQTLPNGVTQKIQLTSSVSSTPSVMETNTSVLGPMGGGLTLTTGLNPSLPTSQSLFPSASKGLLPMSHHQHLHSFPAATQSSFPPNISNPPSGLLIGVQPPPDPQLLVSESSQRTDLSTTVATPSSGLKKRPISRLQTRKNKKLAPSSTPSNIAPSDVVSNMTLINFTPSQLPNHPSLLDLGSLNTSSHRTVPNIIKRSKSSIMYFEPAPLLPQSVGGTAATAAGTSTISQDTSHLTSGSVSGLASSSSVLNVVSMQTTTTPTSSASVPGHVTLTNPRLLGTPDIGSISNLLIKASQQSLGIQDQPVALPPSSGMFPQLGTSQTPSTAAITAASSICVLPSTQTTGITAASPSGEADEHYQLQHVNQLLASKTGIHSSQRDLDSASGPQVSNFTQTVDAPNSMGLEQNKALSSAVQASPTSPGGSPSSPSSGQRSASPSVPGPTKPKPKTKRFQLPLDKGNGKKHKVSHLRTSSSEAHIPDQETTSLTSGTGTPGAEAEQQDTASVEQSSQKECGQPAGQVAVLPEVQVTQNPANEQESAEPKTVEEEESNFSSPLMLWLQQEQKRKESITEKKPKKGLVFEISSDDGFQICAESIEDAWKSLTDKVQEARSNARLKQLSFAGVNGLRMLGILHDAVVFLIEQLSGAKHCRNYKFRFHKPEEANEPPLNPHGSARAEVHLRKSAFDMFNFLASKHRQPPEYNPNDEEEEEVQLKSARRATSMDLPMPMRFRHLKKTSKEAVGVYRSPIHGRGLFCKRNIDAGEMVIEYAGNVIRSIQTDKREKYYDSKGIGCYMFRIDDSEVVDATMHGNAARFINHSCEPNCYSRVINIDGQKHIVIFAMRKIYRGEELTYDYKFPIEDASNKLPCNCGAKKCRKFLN

One test has as its target T1, Menin/Histone-lysine N-methyltransferase MLL (Homo sapiens, UniProt O00255). Nature of the test: Inhibition of full length human menin-MLL1 (4 to 43 residues) (unknown origin) protein-protein interaction after 1 hr by fluorescence polarization assay.
Compound `CC(c1cc2c(N3CCN(C4=NCC(C)(C)S4)CC3)ncnc2s1)C(F)(F)F` (stereo not given) showed a half-inhibitory concentration (IC50) of 0.765 µM.

A further test deals with T1, Menin/Histone-lysine N-methyltransferase MLL. As to the kind of experiment: Inhibition of menin (unknown origin)-FITC-tagged MLL1 (unknown origin) protein-protein interaction after 1 hr by fluorescence polarization assay. On the technique in general: Polarisation of emitted light reports the rotation of a fluorescent probe.
Take `CCc1cc2c(N3CCN(Cc4ccccc4)CC3)ncnc2s1`: the half-maximal inhibitory concentration (IC50) was determined as 52 µM. Compound `CCc1cc2c(N3CCN(c4ccccn4)CC3)ncnc2s1` yielded a half-maximal inhibitory concentration (IC50) of 58 µM.

As to `CCc1cc2c(N3CCN(c4ncccn4)CC3)ncnc2s1`, the IC50 is 87 µM. Same read-out and setting: the result for `CCc1cc2c(N3CCN(Cc4ccc(Cl)cc4)CC3)ncnc2s1` reads 14 µM; that for `CCc1cc2c(N3CCN(c4nncs4)CC3)ncnc2s1`, 193 µM; that for `CCCCc1cc2c(N3CCN(C4=NCC(C)(C)S4)CC3)ncnc2s1`, 0.75 µM. Still for that read-out and setting: the result for `CCc1cc2c(N3CCN(c4nccs4)CC3)ncnc2s1` reads 46 µM.

For a further test the target is unchanged. Nature of the test: Inhibition of menin (unknown origin)-fluorescein-labeled MLL1 (unknown origin) after 1 hr by fluorescence polarization assay. The test is classed as protein assay.
For `CCc1cc2c(N3CCN(c4nnc(C(F)(F)F)s4)CC3)ncnc2s1`, inhibition was half-maximal at 1.3 µM (IC50).

`FC(F)(F)Cc1cc2c(N3CCN(c4nnc(C(F)(F)F)o4)CC3)ncnc2s1`: the 50% inhibitory concentration (IC50) came out at 1.4 µM. The IC50 values of the last two compounds are within 1.5-fold of each other. Same read-out and setting: the result for `FC(F)(F)c1nnc(N2CCN(c3ncnc4sc(C5CC5)cc34)CC2)s1` reads 2 µM; that for `CCCc1cc2c(N3CCN(c4nnc(C(F)(F)F)[nH]4)CC3)ncnc2s1`, 200 µM. The same measure, in the same setting: the figure for `CC1(C)CN=C(N2CCN(c3ncnc4sc(CCCl)cc34)CC2)S1` is 0.193 µM; for `CSc1cc2c(N3CCN(c4nnc(C(F)(F)F)s4)CC3)ncnc2s1` it is 20 µM. Still for that read-out and setting: the result for `CCCc1cc2c(N3CCN(c4nnc(C(F)(F)F)s4)CC3)ncnc2s1` reads 0.65 µM.

The term IC50 denotes the concentration that gives 50% inhibition. Read a low IC50 as inhibition by little substance.
